Reference: ChEMBL document CHEMBL1201862, “PubChem BioAssay data set” (2004)
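96-well plates; 48 h exposure; 5 concentrations. Endpoints by linear interpolation between flanking doses. Not reached: highest tested concentration assigned. Abbreviation: GI50, concentration required for 50% inhibition of growth.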 Activity calls are given as the source filed them. Rule as the data show it: active = GI50 up to about 1.1 µM and inactive = higher.

Key:
Assay in all cases: NCI anticancer screen, dose series, 48 h
ACHN = test system: ACHN
COLO 205 = test system: COLO 205
HCC 2998 = test system: HCC 2998
HCT-15 = test system: HCT-15
Hs-578T = test system: Hs-578T
KM12 = test system: KM12
MOLT-4 = test system: MOLT-4
NCI-H522 = test system: NCI-H522
OVCAR-3 = test system: OVCAR-3
OVCAR-4 = test system: OVCAR-4
PC-3 = test system: PC-3
RXF 393 = test system: RXF 393
SF-539 = test system: SF-539
SK-OV-3 = test system: SK-OV-3
T47D = test system: T47D
TK-10 = test system: TK-10
SF-268 = test system: SF-268
SNB-19 = test system: SNB-19
SW-620 = test system: SW-620
BT-549 = test system: BT-549

SMILES | GI50 (ACHN) | GI50 (COLO 205) | GI50 (HCC 2998) | GI50 (HCT-15) | GI50 (Hs-578T) | GI50 (KM12) | GI50 (MOLT-4) | GI50 (NCI-H522) | GI50 (OVCAR-3) | GI50 (OVCAR-4) | GI50 (PC-3) | GI50 (RXF 393) | GI50 (SF-539) | GI50 (SK-OV-3) | GI50 (T47D) | GI50 (TK-10) | GI50 (SF-268) | GI50 (SNB-19) | GI50 (SW-620) | GI50 (BT-549)
CCCNC(=S)N/N=C/c1cccc(C)n1 | 13.4 µM (inactive) | 3.94 µM (inactive) | 19.5 µM (inactive) | 18.5 µM | > 100 µM (inactive) | > 100 µM (inactive) | 16.8 µM (inactive) | 4.04 µM (inactive) | 2.91 µM (inactive) | 39.4 µM (inactive) | 38.6 µM (inactive) | 28.1 µM (inactive) | 25.2 µM (inactive) | 46 µM (inactive) | 3.43 µM (inactive) | 65.8 µM (inactive) | – | – | – | –
Cc1ccc(C(=O)C(C)N)cc1 (centres undefined) | > 100 µM (inactive) | > 100 µM (inactive) | > 100 µM (inactive) | > 100 µM | – | > 100 µM (inactive) | > 100 µM (inactive) | > 100 µM (inactive) | > 100 µM (inactive) | > 100 µM (inactive) | – | > 100 µM (inactive) | > 100 µM (inactive) | > 100 µM (inactive) | – | > 100 µM (inactive) | > 100 µM (inactive) | > 100 µM (inactive) | > 100 µM (inactive) | –
Fc1ccccc1CN1COc2c(cc(Cl)c3cccnc23)C1 | 0.533 µM (active) | 14.2 µM (inactive) | – | 0.0165 µM | 3.15 µM (inactive) | 2.23 µM (inactive) | 0.239 µM (active) | 2.68 µM (inactive) | 3.75 µM (inactive) | 0.596 µM (active) | 1.44 µM (inactive) | 13.9 µM (inactive) | 1.22 µM (inactive) | 6 µM (inactive) | 3.6 µM (inactive) | 3.09 µM (inactive) | 2.62 µM (inactive) | 2.24 µM (inactive) | 3.08 µM (inactive) | –
C=CC1(c2ccc3ccccc3c2)OCC(CC)(CC)CO1 | 20.5 µM (inactive) | 16.3 µM (inactive) | 20.9 µM (inactive) | 17.9 µM | 18.7 µM (inactive) | 20.8 µM (inactive) | 18.2 µM (inactive) | 24.5 µM (inactive) | 25.2 µM (inactive) | 41 µM (inactive) | 26.9 µM (inactive) | 20 µM (inactive) | 14.3 µM (inactive) | 53.1 µM (inactive) | 22.5 µM (inactive) | 37.5 µM (inactive) | 33.3 µM (inactive) | 17.3 µM (inactive) | 14.9 µM (inactive) | –
CC(=O)OCCn1cnc2nc(Nc3ccccc3)nc(Cl)c21 | 42 µM (inactive) | 47.5 µM (inactive) | 74.5 µM (inactive) | 45.4 µM | > 100 µM (inactive) | 29.2 µM (inactive) | 54.2 µM (inactive) | 84.9 µM (inactive) | > 100 µM (inactive) | 43.3 µM (inactive) | 62.7 µM (inactive) | – | > 100 µM (inactive) | > 100 µM (inactive) | 40.7 µM (inactive) | > 100 µM (inactive) | > 100 µM (inactive) | > 100 µM (inactive) | > 100 µM (inactive) | –
CS/C(=N\C#N)S/C=C/C(=O)c1ccc(Cl)cc1 | 34.4 µM (inactive) | 25.4 µM (inactive) | 42.4 µM (inactive) | 30.2 µM | 32.7 µM (inactive) | 45.7 µM (inactive) | < 0.01 µM (active) | 18.3 µM (inactive) | 15.2 µM (inactive) | 64.7 µM (inactive) | 46.6 µM (inactive) | 19.6 µM (inactive) | 20.8 µM (inactive) | 42.7 µM (inactive) | 25 µM (inactive) | 23.6 µM (inactive) | 22.5 µM (inactive) | 42 µM (inactive) | 15.6 µM (inactive) | –
O=c1/c(=C\c2ccccc2)sc2n1C(c1ccccc1)C1(O)CCCCC1N=2 (centres undefined) | 87.9 µM (inactive) | – | 67.1 µM (inactive) | > 100 µM | – | – | 42.1 µM (inactive) | > 100 µM (inactive) | > 100 µM (inactive) | 50.6 µM (inactive) | 69.7 µM (inactive) | – | – | – | 51.5 µM (inactive) | > 100 µM (inactive) | > 100 µM (inactive) | > 100 µM (inactive) | > 100 µM (inactive) | > 100 µM (inactive)
COC(=O)CC1(O)C(/C=C/c2ccccc2)C(C(=O)OC)C(=O)C(C(=O)OC)C1C(=O)OC (centres undefined) | > 100 µM (inactive) | > 100 µM (inactive) | > 100 µM (inactive) | > 100 µM | > 100 µM (inactive) | > 100 µM (inactive) | > 100 µM (inactive) | 49.5 µM (inactive) | > 100 µM (inactive) | > 100 µM (inactive) | 78.7 µM (inactive) | > 100 µM (inactive) | > 100 µM (inactive) | > 100 µM (inactive) | – | > 100 µM (inactive) | > 100 µM (inactive) | 45.6 µM (inactive) | > 100 µM (inactive) | –
CC1C(c2cc(C(C)(C)C)c(O)c(C(C)(C)C)c2)c2cc3c(cc2OC1N1CCOCC1)OCO3 (centres undefined) | 7.69 µM (inactive) | 71 µM (inactive) | 12.9 µM (inactive) | > 10 µM | 3.13 µM (inactive) | 43.9 µM (inactive) | > 100 µM (inactive) | 21.2 µM (inactive) | 15.8 µM (inactive) | – | 14.2 µM (inactive) | – | 12.9 µM (inactive) | – | 21.4 µM (inactive) | 15.5 µM (inactive) | 17.4 µM (inactive) | 15.7 µM (inactive) | 42.2 µM (inactive) | –
CN(C)NC(=O)/C(=C/c1ccc(Cl)cc1)NC(=O)c1ccccc1 | > 100 µM (inactive) | 45.2 µM (inactive) | > 100 µM (inactive) | 32 µM | – | > 100 µM (inactive) | > 100 µM (inactive) | 40.7 µM (inactive) | > 100 µM (inactive) | > 100 µM (inactive) | – | > 100 µM (inactive) | > 100 µM (inactive) | > 100 µM (inactive) | – | > 100 µM (inactive) | > 100 µM (inactive) | > 100 µM (inactive) | – | –
Cc1ccc(OCC2OC(n3cnc4c(Br)nc(Br)nc43)CC2Oc2ccc(C)cc2)cc1 (centres undefined) | 2.32 µM (inactive) | 4.06 µM (inactive) | 2.6 µM (inactive) | 2.34 µM | – | 3.08 µM (inactive) | 2.1 µM (inactive) | 1.86 µM (inactive) | 5.6 µM (inactive) | 3.12 µM (inactive) | 2.94 µM (inactive) | 4.94 µM (inactive) | 2.19 µM (inactive) | 14.5 µM (inactive) | 10.8 µM (inactive) | 21.8 µM (inactive) | 12.9 µM (inactive) | 7.31 µM (inactive) | 2.56 µM (inactive) | 18.6 µM (inactive)
NCc1ccc(C(=O)O)cc1 [AMINOMETHYLBENZOIC ACID] | > 100 µM (inactive) | – | > 100 µM (inactive) | > 100 µM | – | > 100 µM (inactive) | > 100 µM (inactive) | > 100 µM (inactive) | > 100 µM (inactive) | > 100 µM (inactive) | > 100 µM (inactive) | > 100 µM (inactive) | – | – | > 100 µM (inactive) | > 100 µM (inactive) | > 100 µM (inactive) | > 100 µM (inactive) | > 100 µM (inactive) | > 100 µM (inactive)
